Reference: publication PMC10138723, “Cytotoxic Steroidal Saponins Containing a Rare Fructosyl from the Rhizomes of Paris polyphylla var. latifolia” (International Journal of Molecular Sciences, 2023)
Read-outs that look alike come from different tables or passages of the source.

Columns and labels:
[1] = system: HeLa (human cervical cancer cells); test: CCK-8 cytotoxic assay, HeLa; assay type: cell-based; settings: read-out: IC50 ± SD, HeLa
From the text: (§1) U251 (human glioma cells), HeLa (human cervical cancer cells), and HepG2 (human hepatic cancer cells) were purchased from the Chinese Academy of Sciences (China), and Capan-2 (human pancreatic cancer cells) were obtained from Nanjing Cobioer Biosicences (Nanjing, China). American Type Culture Collection (ATCC) provided LN229 (human glioma cells). NHA (Gibco Human Astrocytes) and Gibco Astrocyte Medium (DMEM, N-2 Supplement, One Shot fetal bovine serum) were purchased from ThermoFisher Scientific (Waltham, MA, USA). The LN229, U251, HepG2 and HeLa cells were cultured in DMEM (Procell, Wuhan, China). The Capan-2 cells were cultured in RPMI-1640 (Procell, Wuhan, China) and NHA cells were cultured in Gibco Astrocyte Medium, supplemented with 10% FBS (Solarbio, Beijing, China) and 1% Penicillin–Streptomycin (Elabscience Biotechnology Co.,Ltd, Wuhan, China) at 37 °C with 5% CO2.
(§2) In the exponential phase of the growth, five tumor cell lines and one normal human astrocytes were plated onto 96-well plates at a concentration of 8000 cells/well for 24 h. Compounds 1–12 were prepared to various concentrations (64, 32, 16, 8, 4, 2, 1 and 0.5 µM in medium containing less than 0.1% DMSO) and incubated in 96-well plates (each concentration in four-fold wells) for 24 h. Cell viability was determined according to reported assay methods using the commercial CCK-8 kit (Elabscience Biotechnology Co., Ltd., Wuhan, China). The optical density (OD) of each well was measured with an AMR-100 microplate reader at 450 nm (Allsheng Corporation, Hangzhou, China). Cytotoxicity emerged as the value of the drug concentration at the inhibition of cell growth by 50% (IC50). The experiments were conducted for three independent replicates, and Doxorubicin was used as the positive control.

[2] = system: U251 (human glioma cells); test: CCK-8 cytotoxic assay, U251; assay type: cell-based; settings: read-out: IC50 ± SD, U251
From the text: as §1, §2

[3] = system: EGFR/PI3K/Akt/mTOR signaling pathway in LN229 cells; test: Western blot of EGFR/PI3K/Akt/mTOR signaling in LN229; assay type: cell-based, human; settings: LN229, 24 h
From the text: (§3) Primary antibodies against Bax (50599-2-Ig), Bcl-2 (26593-1-AP), Akt (10176-2-AP), p-Akt (28731-1-AP), PI3K (20584-1-AP), p-PI3K (60225-1-Ig), mTOR (28273-1-AP), p-mTOR (67778-1-Ig), Cytochrome C (10993-1-AP), β-actin (20536-1-AP), HRP-Goat-Anti-Mouse IgG (H+L) (SA00001-1), and HRP-Goat-Anti-Rabbit IgG (H+L) (SA00001-2) were obtained from Proteintech Group, Inc. (Rosemont, USA). Primary antibodies against EGFR (WL0682a), p-EGFR (WL03432) and cleaved caspase 3 (WL01992) were obtained from Wanleibio (Shenyang, China). The LN229 cells were treated with various concentrations of 1 or 0.1% DMSO for 24 h. A BCA Protein Assay Kit was used to measure the protein concentration, then equal amounts of protein samples were separated by 10% sodium dodecyl sulfate–polyacrylamide gel electrophoresis and transferred to a polyvinylidene fluoride membrane (Millipore, Burlington, MA, USA). The membranes were blocked for 2 h in Tris-buffered saline with PBST buffer, containing 5% skim milk. Then, the membranes were incubated with the appropriate primary antibodies overnight at 4 ℃. Then, the membranes were washed with PBST and reacted with a secondary horseradish peroxidase-conjugated antibody. Image Lab 5.2.1 (Biorad Laboratories, Hercules, CA, USA) was used to analyze the blots after detection using enhanced chemiluminescence (Millipore). Data analyses were performed using the GraphPad Prism software (San Diego, CA, USA).

[4] = system: Capan-2 (human pancreatic cancer cells); test: CCK-8 cytotoxic assay, Capan-2; assay type: cell-based; settings: read-out: IC50 ± SD, Capan-2
From the text: as §1, §2

[5] = system: glioma cells LN229; test: Flow cytometry analysis for apoptosis (Annexin V-FITC/PI); assay type: cell-based, human; settings: different concentrations, 24 h
Description: Flow cytometry was used to analyze the effect of 1 on the apoptosis of glioma cells LN229. Cells were treated with different concentrations of 1 for 24 h. Then, the cells were collected and washed twice with cold PBS for five minutes (1000 rpm). The cells were analyzed for apoptosis by flow cytometry (BD, Franklin Lakes, NJ, USA) using the Annexin V-FITC/PI assay kit.

[6] = system: HepG2 (human hepatic cancer cells); test: CCK-8 cytotoxic assay, HepG2; assay type: cell-based; settings: read-out: IC50 ± SD, HepG2
From the text: as §1, §2

[7] = system: Bax/Bcl-2, cleaved caspase 3, cytochrome c in LN229 cells; test: Western blot of apoptosis-related proteins in LN229; assay type: cell-based, human; settings: LN229, 24 h, compared with the control group
From the text: as §3

[8] = system: NHA (normal human astrocytes); test: CCK-8 cytotoxic assay, NHA normal astrocytes; assay type: cell-based; settings: Astrocyte, read-out: IC50 ± SD, NHA
From the text: as §1, §2

[9] = system: LN229 (human glioma cells); test: CCK-8 cytotoxic assay, LN229; assay type: cell-based; settings: read-out: IC50 ± SD, LN229
From the text: as §1, §2

[10] = system: five cancer cell lines (LN229, U251, Capan-2, HeLa, HepG2); test: CCK-8 cytotoxic assay, summary over five cancer cell lines; assay type: cell-based; settings: Homo sapiens, range over compounds 1 and 2 and five cancer cell lines, read-out: IC50 values (range) against five cancer cell lines
From the text: as §1
In the exponential phase of the growth, five tumor cell lines and one normal human astrocytes were plated onto 96-well plates at a concentration of 8000 cells/well for 24 h. […] Cell viability was determined according to reported assay methods using the commercial CCK-8 kit (Elabscience Biotechnology Co., Ltd., Wuhan, China). The optical density (OD) of each well was measured with an AMR-100 microplate reader at 450 nm (Allsheng Corporation, Hangzhou, China). […]

[11] = NHA normal human astrocytes, CCK-8, 24 h
[12] = LN-229, LN229 cells, CCK-8, 24 h

| SMILES | IC50 ([1]; HeLa cells, CCK-8, 24 h) [µM] | IC50 ([2]; U-251, U251 cells, CCK-8, 24 h) [µM] | IC50 ([4]; Capan-2 cells, CCK-8, 24 h) [µM] | IC50 ([6]; HepG2 cells, CCK-8, 24 h) [µM] | IC50 [8, 11] [µM] | IC50 [9, 12] [µM] | other results |
| --- | --- | --- | --- | --- | --- | --- | --- |
| CC1CCC2(OC1)OC1CC3C4CC=C5CC(OC6OC(COC7(CO)OC(CO)C(O)C7O)C(O)C(O)C6OC6OC(C)C(O)C(O)C6O)CCC5(C)C4CCC3(C)C1C2C [Compound 1, diosgenin-3-O-β-D-fructofuranosyl-(1→6)-[α-L-rhamnopyranosyl-(1 → 2)]-β-D-glucopyranoside] | 3.3 ± 0.38 | 3.85 ± 0.44 | 3.26 ± 0.34 | 4.32 ± 0.51 | > 50 | 4.18 ± 0.31 | expression level of p-Akt [3]: decreased; expression level of p-PI3K [3]: decreased; expression level of p-mTOR [3]: decreased; expression of total EGFR [3]: no evident effect; phosphorylation levels of EGFR [3]: significantly suppressed; ratio of apoptotic LN229 (Annexin V+/PI−) [5]: increased; ratio of living cells (Annexin V−/PI−) [5]: decreased; expression of Bax/Bcl-2 [7]: significantly increased; expression of cleaved caspase 3 [7]: significantly increased; expression of cytochrome c [7]: significantly increased; IC50 [10]: 3.26 to 22.3 µM |
| CC1CCC2(OC1)OC1CC3C4CC=C5CC(OC6OC(COC7(CO)OC(CO)C(O)C7O)C(OC7OC(CO)C(O)C7O)C(O)C6OC6OC(C)C(O)C(O)C6O)CCC5(C)C4CCC3(C)C1C2C [Compound 2, diosgenin-3-O-β-D-fructofuranosyl-(1 → 6)-[α-L-arabinofuranosyl-(1→4)]-[α-L-rhamnopyranosyl-(1→2)]-β-D-glucopyranoside] | 22.3 ± 1.33 | 15.8 ± 0.65 | 20.4 ± 1.05 | 18.8 ± 1.25 | > 50 | 15.4 ± 0.47 | IC50 [10]: 3.26 to 22.3 µM |
| C=C1C(=O)OC2CC3C4CC=C5CC(OC6OC(CO)C(OC7OC(CO)C(O)C7O)C(O)C6OC6OC(C)C(O)C(O)C6O)CCC5(C)C4CCC3(C)C12 (stereo not drawn) [Compound 3] | > 50 | > 50 | > 50 | > 50 | > 50 | > 50 | – |
| CC(=O)C1=CCC2C3CC=C4C[C@@H](O[C@@H]5O[C@H](CO)[C@@H](O[C@@H]6O[C@@H](CO)[C@H](O)[C@H]6O)[C@H](O)[C@H]5O[C@@H]5O[C@@H](C)[C@H](O)[C@@H](O)[C@H]5O)CC[C@]4(C)C3CC[C@]12C (stereo partly drawn) [Compound 4, pregna-5,16-diene-3β-ol-20-one-3-O-α-L-arabinofuranosyl-(1 → 4)-[α-L-rhamnopyranosyl(1 → 2)]-β-D-glucopyranoside] | > 50 | > 50 | > 50 | > 50 | > 50 | > 50 | – |
| C=C1C(=O)OC2CC3C4CC=C5CC(OC6OC(CO)C(OC7OC(C)C(O)C(O)C7O)C(O)C6OC6OC(C)C(O)C(O)C6O)CCC5(C)C4CCC3(C)C12 (stereo not drawn) [Compound 5, chonglouoside SL-8] | > 50 | > 50 | > 50 | > 50 | > 50 | > 50 | – |
| C=C1C(=O)OC2CC3C4CC=C5CC(OC6OC(CO)C(O)C(O)C6OC6OC(C)C(O)C(O)C6O)CCC5(C)C4CCC3(C)C12 (stereo not drawn) [Compound 6, pallidifloside D] | – | – | – | – | – | – | IC50 ([1]; HeLa, 24 h): > 50 µM; IC50 ([2]; U-251, 24 h): > 50 µM; IC50 ([4]; Capan-2, 24 h): > 50 µM; IC50 ([6]; HepG2, 24 h): > 50 µM; IC50 ([8]; Homo sapiens, 24 h): > 50 µM; IC50 ([9]; LN-229, 24 h): > 50 µM |
| Cc1c(CCC(C)COC2OC(CO)C(O)C(O)C2O)ccc2c1C1(C)CCC3C(CC=C4CC(OC5OC(CO)C(OC6OC(C)C(OC7OC(C)C(O)C(O)C7O)C(O)C6O)C(O)C5OC5OC(C)C(O)C(O)C5O)CCC43C)C1C2 (stereo not drawn) [Compound 7, parispseudoside A] | > 50 | > 50 | > 50 | > 50 | > 50 | > 50 | – |
| Cc1c(CCC(C)COC2OC(CO)C(O)C(O)C2O)ccc2c1C1(C)CCC3C(CC=C4CC(OC5OC(CO)C(OC6OC(CO)C(O)C6O)C(O)C5OC5OC(C)C(O)C(O)C5O)CCC43C)C1C2 [Compound 8, 3-O-α-L-arabinofuranosyl-(1 → 4)-[α-L-rhamnopyranosyl (1 → 2)]-β-D-glucopyranosyl-β-D-chacotriosyl-26-O-β-D-glucopyranoside] | > 50 | > 50 | > 50 | > 50 | > 50 | > 50 | – |
| Cc1c(CCC(C)COC2OC(CO)C(O)C(O)C2O)ccc2c1C1(C)CCC3C(CC=C4CC(OC5OC(CO)C(OC6OC(C)C(O)C(O)C6O)C(O)C5OC5OC(C)C(O)C(O)C5O)CCC43C)C1C2 (stereo not drawn) [Compound 9, aethioside A] | > 50 | > 50 | > 50 | > 50 | > 50 | > 50 | – |
| CC(=O)C1=CCC2C3CC=C4C[C@@H](O[C@@H]5O[C@H](CO)[C@@H](O)[C@H](O)[C@H]5O[C@@H]5O[C@@H](C)[C@H](O)[C@@H](O)[C@H]5O)CC[C@]4(C)C3CC[C@]12C (stereo partly drawn) [Compound 10, spongipregnolosides A] | > 50 | > 50 | > 50 | > 50 | > 50 | > 50 | – |
| CC(=O)C1=CC[C@H]2[C@@H]3CC=C4C[C@@H](O[C@@H]5O[C@H](CO)[C@@H](O[C@@H]6O[C@@H](C)[C@H](O)[C@@H](O)[C@H]6O)[C@H](O)[C@H]5O[C@@H]5O[C@@H](C)[C@H](O)[C@@H](O)[C@H]5O)CC[C@]4(C)[C@H]3CC[C@]12C [Compound 11, hypoglaucin H] | > 50 | > 50 | > 50 | > 50 | > 50 | > 50 | – |
| Cc1c(CCC(C)COC2OC(CO)C(O)C(O)C2O)ccc2c1C1(C)CCC3C(CC=C4CC(OC5OC(CO)C(O)C(O)C5OC5OC(C)C(O)C(O)C5O)CCC43C)C1C2 (stereo not drawn) [Compound 12, parispseudoside B] | > 50 | > 50 | > 50 | > 50 | > 50 | > 50 | – |
| COc1cccc2c1C(=O)c1c(O)c3c(c(O)c1C2=O)C[C@@](O)(C(=O)CO)C[C@@H]3O[C@H]1C[C@H](N)[C@H](O)[C@H](C)O1 [Doxorubicin, reference compound] | 0.18 ± 0.02 | 0.21 ± 0.04 | 0.18 ± 0.02 | 0.21 ± 0.02 | > 50 | 0.35 ± 0.05 | – |
